US6107489A, “Extended lifetimes in vivo renin inhibitors” (ConjuChem, Inc., priority 1999, dated 2000)
Where two headings read alike, the source gives them in different places.

How the values were obtained:
renin [1] = assay type: in vivo, rabbit; details: for Corrected % Inhibition: normalized for dilution
Description: Materials and Methods: The following procedures were done under sterile conditions. Rabbit plasma was obtained from freshly drawn heparinized blood. One 8 mL aliquot of plasma was incubated with 5 micromoles of YS-004-69 (15) (the NHS ester; "NHS-RI") for 60 minutes at room temperature. Another equal aliquot was similarly incubated with 5 micromoles of YS-004-65 (free acid; "Free RI"). The reaction mixtures were stored at 4° C. overnight. Aliquots of these samples were saved for analysis of total renin inhibitor content by a standard renin radioimmunoassay (RIA). After warming to 37° C., the plasma samples were injected into two autologous rabbits. The rabbits were then bled at defined intervals. The blood was centrifuged for 5 minutes at 2500 rpm and then aliquots of the plasma were analyzed by RIA. Results: Plasma proteins derivatized with the NHS ester of the renin inhibitor did indeed maintain the inhibitor in a conformation which remained bioavailable and inhibitory after an extended period of circulation in the blood. […] Again, the amount of inhibitor detectable has been normalized for the effect of dilution of the plasma by the volume of blood in circulation. "ND" means this measurement was not determined.

renin [2] = molecular target: T1, renin (Homo sapiens, UniProt P00797); assay: renin inhibition IC50; assay type: biochemical
T1 sequence (P00797 67-406): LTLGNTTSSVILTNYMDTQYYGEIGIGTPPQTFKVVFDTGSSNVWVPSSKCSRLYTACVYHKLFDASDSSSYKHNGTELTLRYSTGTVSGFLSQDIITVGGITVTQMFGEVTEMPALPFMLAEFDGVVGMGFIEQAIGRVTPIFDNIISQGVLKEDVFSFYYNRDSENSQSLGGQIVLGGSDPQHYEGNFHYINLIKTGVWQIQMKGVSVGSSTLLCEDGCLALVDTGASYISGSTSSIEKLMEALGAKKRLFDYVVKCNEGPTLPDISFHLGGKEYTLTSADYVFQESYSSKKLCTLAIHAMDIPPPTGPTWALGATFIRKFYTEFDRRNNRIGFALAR

Compound	Crude % Inhibition (renin [1]; 10 min after injection) [%]	Corrected % Inhibition (renin [1]; 10 min after injection) [%]	Crude % Inhibition (renin [1]; 30 min after injection) [%]	Corrected % Inhibition (renin [1]; 30 min after injection) [%]	Crude % Inhibition (renin [1]; 1 hour after injection) [%]	Corrected % Inhibition (renin [1]; 1 hour after injection) [%]	Crude % Inhibition (renin [1]; 4 hours after injection) [%]	Corrected % Inhibition (renin [1]; 4 hours after injection) [%]	Crude % Inhibition (renin [1]; 6 hours after injection) [%]	Corrected % Inhibition (renin [1]; 6 hours after injection) [%]	Crude % Inhibition (renin [1]; 8 hours after injection) [%]	Corrected % Inhibition (renin [1]; 8 hours after injection) [%]	Crude % Inhibition (renin [1]; 1 day after injection) [%]	Corrected % Inhibition (renin [1]; 1 day after injection) [%]	Crude % Inhibition (renin [1]; 2 days after injection) [%]	Corrected % Inhibition (renin [1]; 2 days after injection) [%]	Crude % Inhibition (renin [1]; 3 days after injection) [%]	Corrected % Inhibition (renin [1]; 3 days after injection) [%]	Corrected % Inhibition (renin [1]; 6 days after injection) [%]	Crude % Inhibition (renin [1]; 10 days after injection) [%]	other results
CC[C@H](C)[C@H](NC(=O)C[C@H](O)[C@H](CC1CCCCC1)NC(=O)[C@H](Cc1c[nH]cn1)NC(=O)[C@H](Cc1ccccc1)NC(=O)OC(C)(C)C)C(=O)NCCCCCC(=O)O [YS-004-65, Boc-Phe-His-ACHPA-IIe-6-AC-OH]	89.40	100.00	20.60	23.04	-2.80	-3.13	-5.20	-5.82	-0.40	-0.45	-2.90	-3.24	-5.20	-5.82	-3.20	-3.58	1.40	1.57	0.00	-6.60	Corrected % Inhibition (renin [1]; 10 days after injection): -7.38%; level of renin inhibitor / inhibition in plasma over time (renin [1]; rabbit, in vivo): not detectable after one hour; IC50 (renin [2]): 50 nM
CC[C@H](C)CNC(=O)C[C@H](O)[C@H](CC1CCCCC1)NC(=O)[C@H](Cc1c[nH]cn1)NC(=O)[C@H](Cc1ccccc1)NC(=O)OC(C)(C)C [parent renin inhibitor, reference compound]	–	–	–	–	–	–	–	–	–	–	–	–	–	–	–	–	–	–	–	–	IC50 (renin [2]): 4 to 19 nM
Boc-Phe-His-ACHPA-IIe-6-AC-NHS [YS-004-69]	97.70	100.00	87.40	89.46	85.90	87.92	87.40	99.69	88.20	100.51	70.50	72.16	75.10	76.87	68.10	69.70	75.80	77.38	56.60	41.20	Crude % Inhibition (renin [1]; 6 days after injection): 55.30%; Corrected % Inhibition (renin [1]; 10 days after injection): 42.17%
